{"source": "patent EP0110746A1", "about": "“Derivatives of 3-amino-1-phenoxy-2-propanol, their therapeutical use and process for their preparation” (LABORATOIRE L. LAFON Société anonyme dite:, priority 1982, dated 1984)", "key": {"[1]": {"test_system": "chiens anesthésiés au nembutal", "assay": "Cardiovascular properties, anaesthetised dog, intraduodenal route", "format": "in vivo, chien", "experimental": "Trois chiens (poids moyen : 13,6 kg) anesthésiés au nembutal reçoivent le CRL 41 058 par voie intraduodénale aux doses successives de 0,5 mg/kg, 1 mg/kg, 2,5 mg/kg, 5 mg/kg et 10 mg/kg. On mesure la pression artérielle (il est rappelé que 1 mm Hg correspond à environ 1,333 x 102 Pa), la fréquence cardiaque, le débit artériel fémoral, le débit artériel vertébral, la température rectale, et on note la coloration de la peau et la coloration de la bile recueillie par cathétérisation du cholédoque après ligature du cystique."}, "[2]": {"test_system": "tachycardie induite par isoprénaline", "assay": "Anaesthetised rat: determination of the effective β-blocking dose", "format": "in vivo", "settings": "iv, I.V., 0,03 à 0,3 µg/kg I.V. isoprénaline, read-out: dose qui bloque la tachycardie induite par isoprénaline", "experimental": "Des rats normotendus sont anesthésiés au pentobarbital (75 mg/kg I.P.) et atropinés (1 mg/kg I.P.) On mesure leur pression artérielle carotidienne, leur fréquence cardiaque par intégration de la pression artérielle. Une veine jugulaire […] pour les injections. Si besoin est, l'anesthésie est entretenue par injection sous-cutanée de pentobarbital. 3 rats reçoivent le CRL 41 058 par voie intraveineuse, aux doses successives de 0,3 mg/kg, 1 mg/kg,3 mg/kg, 10 mg/kg et, éventuellement, 30 mg/kg. On détermine la dose qui bloque […] induite par 0,03 à 0,3μg/kg […] (dose nécessaire pour obtenir une augmentation de fréquence cardiaque de 30 à 50 bat/min). On trouve que la dose en question est de 1 mg/kg I.V."}, "homme": {"test_system": "homme", "assay": "Clinical trials in man", "format": "in vivo", "settings": "daily dose 40 à 50 mg in 2 à 3 intakes, 2 à 6 semaines"}, "[3]": {"test_system": "rats normotendus anesthésiés au pentobarbital", "assay": "Anaesthetised rat: duration of the β-blocking action", "format": "in vivo", "experimental": "Des rats normotendus sont anesthésiés au pentobarbital (75 mg/kg I.P.) et atropinés (1 mg/kg I.P.) On mesure leur pression artérielle carotidienne, leur fréquence cardiaque par intégration de la pression artérielle. Une veine jugulaire est cathétérisée pour les injections. Si besoin est, l'anesthésie est entretenue par injection sous-cutanée de pentobarbital.\n5 rats reçoivent 1 mg/kg de CRL 41 058 par voie I.V. 0n observe que : • - la pression artérielle, diastolique n'est pas modifiée, elle reste voisine de 91 mm Hg; et • - la fréquence cardiaque passe, en 5 min, de 345 à 290 bat/min (soit -16%), la bradycardie maximale est obtenue au temps 20 min : 280 bat/min (soit -19%). Après 90 min, la fréquence cardiaque est à 307 bat/min (soit -11%)."}, "[4]": {"test_system": "oreillettes droites isolées de cobaye", "assay": "Isolated guinea pig right atria: pA2 against chronotropic effect of isoprenaline, own inotropic and chronotropic action", "excerpt": "Sur ces oreillettes, on évalue aussi l'action inotrope et chronotrope propre du CRL 41 058; aucune moyenne n'a pu être faite, les concentrations et l'ordre d'administration des concentrations étant variables. […] Par contre, si,par exemple, la concentration de 10^-6 M est administrée après des concentrations inférieures qui ont été stimulantes, cette concentration de 10^-6 M est ino et chrono (ce phénomène pourrait laisser supposer une libération de catécholamines)."}, "souris mâle [5]": {"test_system": "souris mâle", "assay": "Global behaviour and reactivities, mouse", "format": "in vivo", "experimental": "(§1) On a résumé ci-après une partie des essais qui ont été entrepris avec le CRL 41 058 (produit de l'exemple 1). Dans ces essais et sauf indications contraires, le CRL 41 058, en suspension dans une solution aqueuse de gomme arabique pour des concentrations supérieures ou égales à 3 g/1, et en solution dans de l'eau distillée pour des concentrations inférieures à 3g/l, a été administré par voie intrapéritonéale sous un volume de 20 ml/kg chez la souris mâle et de 5 ml/kg chez le rat mâle."}, "souris mâle [6]": {"test_system": "souris mâle", "assay": "in vivo", "settings": "mouse, ip", "experimental": "as §1\n(§2) Chez la souris màle par voie I.P., la DL-0 (dose maximale non mortelle) est supérieure à 64 mg/kg, et la DL-30 (dose à laquelle 30% des animaux meurent) est de l'ordre de 128 mg/kg. Le CRL 41 058 est moins toxique que le chlorhydrate de 1-(3,5-diméthoxy- phénoxy)-3-tertiobutylamino-2-propanol qui a une DL-50 par voie I.P. chez la souris mâle de l'ordre de 73 mg/kg."}, "[7]": {"test_system": "rats génétiquement hypertendus", "assay": "Awake genetically hypertensive rat: arterial pressure and heart rate", "format": "in vivo", "settings": "20 mg/kg V.B.", "experimental": "6 rats génétiquement hypertendus, à cathéter artériel fémoral implanté, reçoivent le CRL 41 058 à la dose de 20 mg/kg V.B."}, "rat mâle": {"test_system": "rat mâle", "assay": "Global behaviour and reactivities, rat", "format": "in vivo", "experimental": "as §1"}, "Solubility in water": {"assay": "Solubility in water", "format": "physicochemical", "settings": "read-out: soluble dans l'eau", "experimental": "La base libre ainsi obtenue est traitée au reflux dans de l'éthanol anhydre par de l'éthanol chlorhydrique. Il se forme un précipité que l'on isole pour recueillir 36,3 g (rendement = 69,75%) de CRL 41 058 qui se présente sous la forme d'une poudre légèrement beige soluble à 12,5 g/1 dans l'eau. Finst (Köfler) ^= 216°C."}, "in vivo": {"assay": "in vivo", "parameters": "species or system souris", "settings": "mouse, ip", "experimental": "as §1, §2"}}}
{"smiles": "COc1cc(OC)c(Cl)c(OCC(O)CNC(C)(C)C)c1", "note": "(stereo not shown) [CRL 41 058, chlorhydratede 1-(2-chloro-3,5-diméthoxyphénoxy)-3-tertiobutylamino-2-propanol]", "values": [{"measurement": "effet tachycardisant de l'isoprénaline", "setting": "[1]; 100 µg/kg isoprénaline, two dogs, after cumulative dose 19 mg/kg", "value": "inférieur à l'effet tachycardisant de 0,3µg/kg d'isoprénaline témoin"}, {"measurement": "minimal effective dose", "setting": "[1]; Canis lupus familiaris, intraduodenal, voie intraduodénale, successive doses 0,5 to 10 mg/kg, read-out: dose bradycardisante", "value": "≥ 0.5", "unit": "mg/kg"}, {"measurement": "pression artérielle systolique", "setting": "[1]; after 1 µg/kg noradrénaline, control 280 mm Hg", "value": 221, "unit": "mm Hg"}, {"measurement": "pression artérielle diastolique", "setting": "[1]; after 3 µg/kg isoprénaline, cumulative dose 19 mg/kg, control 48 mm Hg", "value": 119, "unit": "mm Hg"}, {"measurement": "fréquence cardiaque", "setting": "[1]; after 3 µg/kg isoprénaline, cumulative dose 19 mg/kg, control 245 bat/min", "value": 110, "unit": "bat/min"}, {"measurement": "coloration de la peau et celle de la bile", "setting": "[1]; voie intraduodénale", "value": "ne sont pas modifiées"}, {"measurement": "débit artériel vertébral", "setting": "[1]; voie intraduodénale", "value": "n'est pas vasodilatateur vertébral"}, {"measurement": "températures rectale et cutanée", "setting": "[1]; voie intraduodénale", "value": "varient peu"}, {"measurement": "action sur la pression artérielle", "setting": "[1]; voie intraduodénale, from 0,5 mg/kg", "value": "sans aucune action nette"}, {"measurement": "augmentation du débit fémoral", "setting": "[1]; voie intraduodénale, flow decreases in the two other dogs", "value": "présente seulement chez un chien sur trois"}, {"measurement": "minimal effective dose", "setting": "[2]", "value": 1, "unit": "mg/kg"}, {"measurement": "action β-bloquante chez l'homme", "setting": "homme", "value": "confirmé chez l'homme l'intérêt de l'action β-bloquante"}, {"measurement": "tachycardie à l'isoprénaline", "setting": "[3]; 0,03 µg/kg I.V. isoprénaline after 1 mg/kg I.V., 5 min", "value": "totalement inhibée"}, {"measurement": "tachycardie à l'isoprénaline, part de sa valeur reprise", "setting": "[3]; 0,03 µg/kg I.V. isoprénaline after 1 mg/kg I.V., 20 min", "value": 50, "unit": "%"}, {"measurement": "tachycardie à l'isoprénaline, part de sa valeur restaurée", "setting": "[3]; 0,03 µg/kg I.V. isoprénaline after 1 mg/kg I.V., 60 min", "value": 92, "unit": "%"}, {"measurement": "variation de pression artérielle à l'isoprénaline par rapport à la variation témoin", "setting": "[3]; 0,03 µg/kg I.V. isoprénaline after 1 mg/kg I.V., at 5 min and during 2 h", "value": -69, "unit": "%"}, {"measurement": "variation de pression artérielle à l'isoprénaline", "setting": "[3]; 0,03 µg/kg I.V. isoprénaline after 1 mg/kg I.V., at 5 min and during 2 h, control -26 mm Hg", "value": "+8 mm Hg"}, {"measurement": "fréquence cardiaque, variation", "setting": "[3]; 1 mg/kg I.V., 5 min", "value": -16, "unit": "%"}, {"measurement": "fréquence cardiaque", "setting": "[3]; 1 mg/kg I.V., 5 min, baseline 345", "value": 290, "unit": "bat/min"}, {"measurement": "fréquence cardiaque (bradycardie maximale)", "setting": "[3]; 1 mg/kg I.V., 20 min", "value": 280, "unit": "bat/min"}, {"measurement": "fréquence cardiaque, variation (bradycardie maximale)", "setting": "[3]; 1 mg/kg I.V., 20 min", "value": -19, "unit": "%"}, {"measurement": "fréquence cardiaque", "setting": "[3]; 1 mg/kg I.V., 90 min", "value": 307, "unit": "bat/min"}, {"measurement": "fréquence cardiaque, variation", "setting": "[3]; 1 mg/kg I.V., 90 min", "value": -11, "unit": "%"}, {"measurement": "pression artérielle diastolique", "setting": "[3]; 1 mg/kg I.V., not modified", "value": "~91", "unit": "mm Hg"}, {"measurement": "Kb", "setting": "[4]; Cavia porcellus, 0.25 h, 15 min de contact, mean of 5 atria, read-out: pA2 vis-à-vis de l'effet chronotrope de l'isoprénaline (converted)", "value": 6.17, "unit": "nM"}, {"measurement": "action inotrope et chronotrope propre", "setting": "[4]; maximum at first concentration used, 3 x 10^-8 à 10^-6 M", "value": "effet ino + et chrono+"}, {"measurement": "symptômes", "setting": "souris mâle [5]; I.P., 0,5 mg/kg, 2 mg/kg et 8 mg/kg", "value": "ne provoquent pas de symptômes nets"}, {"measurement": "symptômes", "setting": "souris mâle [5]; I.P., 32 mg/kg", "value": "sédation inconstante (chez 2 animaux sur 3) et fugace (30 min), une dyspnée (chez 2 animaux sur 3) pendant 15 à 30 min"}, {"measurement": "DL-0 (dose maximale non mortelle)", "setting": "souris mâle [6]", "value": "> 64", "unit": "mg/kg"}, {"measurement": "DL-30 (dose à laquelle 30% des animaux meurent)", "setting": "souris mâle [6]", "value": "~128", "unit": "mg/kg"}, {"measurement": "fréquence cardiaque", "setting": "[7]; 5 min, baseline 382", "value": 322, "unit": "bat/min"}, {"measurement": "fréquence cardiaque (bradycardie maximale)", "setting": "[7]; 2 h", "value": 305, "unit": "bat/min"}, {"measurement": "pression artérielle", "setting": "[7]; 6 h, baseline 191", "value": 167, "unit": "mm Hg"}, {"measurement": "fréquence cardiaque", "setting": "[7]; 7 h", "value": 322, "unit": "bat/min"}, {"measurement": "fréquence cardiaque", "setting": "[7]; 24 h", "value": 330, "unit": "bat/min"}, {"measurement": "pression artérielle", "setting": "[7]; 24 h", "value": "a repris sa valeur témoin"}, {"measurement": "symptômes", "setting": "rat mâle; I.P., 0,25 mg/kg, 1 mg/kg et 4 mg/kg", "value": "ne provoquent pas de symptômes nets"}, {"measurement": "symptômes", "setting": "rat mâle; I.P., 16 mg/kg", "value": "sédation fugace (30 min) et déprime la respiration (chez 2 animaux sur 3) pendant 30 min"}, {"measurement": "solubility", "setting": "Solubility in water", "value": 12.5, "unit": "mg/mL"}]}
{"smiles": "COc1cc(OC)cc(OCC(O)CNC(C)(C)C)c1", "note": "(stereo not shown) [chlorhydratede 1-(3,5-diméthoxy-phénoxy)-3-tertiobutylamino-2-propanol, reference compound]", "values": [{"measurement": "LD50", "setting": "in vivo", "value": "~73", "unit": "mg/kg"}]}
